Entries after “also recorded” stand apart in the source; their conditions may differ. Each block holds one compound with its values, some of them ahead of it.
What was measured:
UCP2 protein [1] = biological target: T1, UCP2 protein (Mus musculus, UniProt P70406); assay: Respiration stimulation factor in mitochondria of recombinant yeast expressing UCP2; assay type: biochemical, mice; details: for activation of the activity of UCP2 protein: pH not stated
T1 construct: lacking the untranslated regions 5′ and 3′ is obtained by enzymatic amplification; expressed in transfected cells; host or cells: Saccharomyces cerevisiae diploid W303, vector pYeDP-1/8-10; isolated mitochondria
T1 sequence (P70406 1-309): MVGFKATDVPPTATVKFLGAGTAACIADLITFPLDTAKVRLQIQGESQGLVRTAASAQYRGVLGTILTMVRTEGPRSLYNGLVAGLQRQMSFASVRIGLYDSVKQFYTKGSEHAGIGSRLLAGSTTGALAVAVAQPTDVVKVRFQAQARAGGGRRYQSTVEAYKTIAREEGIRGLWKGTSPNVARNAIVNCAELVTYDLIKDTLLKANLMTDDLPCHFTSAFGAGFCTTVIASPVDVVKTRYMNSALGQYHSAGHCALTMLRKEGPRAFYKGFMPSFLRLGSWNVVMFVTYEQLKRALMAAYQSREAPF
Description: The effect of this type of compounds particularly on the activity of UCP2 protein, has been shown on a yeast model. The test consists in constructing yeast layers of recombinant Saccharomyces cervisiae yeasts being capable of expressing UCP2 protein, extracting UCP2 proteins from the mitochondria and measuring the activity of UCP2 protein in the presence or in the absence of retinoic acid. In the model which has been retained, the uncoupling activity of the UCP2 proteins is quantitatively measured by means of the factor of stimulation of respiration.
(§1) This factor corresponds to the ratio of respiration and baseline respiration, measured or in the absence of retinoic acid (when measurements are made at a constant pH but varying the concentration of retinoic acid) or at pH 6.8 (when measurements are made at a given concentration of retinoic acid, but varying the pH).
(§2) Respiration is determined by measurement of the quantity of consumed oxygen, expressed in nanomoles of oxygen per minute and milligram of mitochondrial proteins, the consumption of oxygen being directly linked to the quantity of substrate having been consumed by the mitochondria (in calories).
The cDNA of UCP2 proteins of mice (C. Fleury et al. (1997) Uncoupling protein-2: A novel gene linked to obesity and hyperinsulinaemia, Nature Genetics, 15, 269-272) lacking the untranslated regions 5′ and 3′ is obtained by enzymatic amplification with the following oligonucleotides:
The resulting DNA product is repaired with a Kleenow enzyme, thereafter cut with EcoRl and Sacl. This forces donation in the pYeDP-1/8-10 vector. In each case, the insertion of cDNA encoding for UCP2 protein in the pYeDP vector has been sequenced so as to verify that the encoding sequence had the expected properties. The UCP2-expressing pYeDP-YCP vector is introduced in a diploid W303 strain of Saccharomyces cervisiae yeast ([…]; ade2-10; his3-11,15; leu2-3,112; ura3-1; canl-100; trp-) by electroporation and the transformants are selected for their […].
A process derived from that described by Guérin et al. (Guérin B., Labbe P. et Somlo, M. (1979) Methods Enzymol; 55, 149-159) is used. 36 hours before the extraction of the mitochondria a pre-culture in SP-medium (0.67% o nitrogenated yeast base, 0.1% KH2PO4, 0.12% (NH4)2SO4, 0.1% glucose, 2% lactic acid, 0.1% casaminoacids, 20 mg/l triptophane, 40 mg/1 adenine of pH 4.5), 10 or 12 hours before the extraction, a dilution in SP-medium (2% galactose, 0.67% nitrogenated yeast base, 0.1% casaaminoacids, 20 mg/l triptophane and […] adenine, at an optical density of 0.35-0.4).
Protoplasts are prepared by enzymatic digestion with cytohelicase and the mitochondria are isolated by differential centrifugation after homogenization of the protoplasts obtained by enzymatic digestion of the cell wall.
Only quantitative measurement of mitochondrial respiration has been made for UCP2. This measurement is made at 20° C. in an oxygen-electrode chamber (Clark electrode) commercialized by the company HANSATECH. The incubation medium contains 0.65M mannitol, […] Tris/Maleate, 0.5 mM EGTA, 2 mM MgC12, 10 mMK2hpo4, 1 mg/ml ([…]) albumin pH6.8).
Mitochondria concentration is 0.15 mg/ml. NADH (3 mM) is used as substrate as mitochondria of Saccharomyces cervisiae are capable of oxidizing NADH of external origin).
The tests are performed varying any of the pH or the terinoïc acid concentration in the medium. The concentrations of free retinoic acid are esteemed up to some tens of nanomars (determined by fixing the molar ratio retinoic acid:albumin). The concentration of albumin is 0.1 mg/ml […]) in the respiration buffer and the tested pH are respectively 6.8; 7.1; 7.3 or 7.5. The further components of the buffer are identical to those in example 1 and in the same concentrations.

UCP2 protein [2] = biological target: T1, UCP2 protein; assay: as above; assay type: biochemical, mice; details: FIG. 5; molar ratio acid:albumin 3:1 and 4:1
UCP1 protein [3] = biological target: T2, UCP1 protein (Rattus norvegicus, UniProt P04633); assay: Respiration stimulation factor in mitochondria of recombinant yeast expressing UCP1; assay type: biochemical
T2 construct: The cDNA of the UCP1 protein which lacks the untranslated regions at 3′ and 5′ is obtained by enzymatic amplification; expressed in transfected cells; host or cells: Saccharomyces cerevisiae, vector pYeDP-1/8-10 (plasmid pYeDP-UCP+); isolated mitochondria
T2 sequence (P04633 1-307): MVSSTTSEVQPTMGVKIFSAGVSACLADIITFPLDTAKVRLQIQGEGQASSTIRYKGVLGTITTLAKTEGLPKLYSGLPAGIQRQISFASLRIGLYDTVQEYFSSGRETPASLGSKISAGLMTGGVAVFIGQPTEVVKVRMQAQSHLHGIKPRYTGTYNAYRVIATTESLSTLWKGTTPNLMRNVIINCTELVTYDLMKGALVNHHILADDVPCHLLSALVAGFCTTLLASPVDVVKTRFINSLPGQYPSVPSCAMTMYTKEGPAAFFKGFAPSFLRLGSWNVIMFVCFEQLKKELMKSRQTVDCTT
Method: as §1, §2
FIG. 2 represents a curve of response of yeast mitochondria to retinoic acid. In the abscissa, there appears the molar ratio of retinoic acid/albumin (albumin concentration: 1 micromole within the medium); in the ordinate, there appears the factor of stimulation of the baseline respiration. FIG. 2a was obtained at pH 6.8 and figure at pH 7.3.
The construction of the expression vectors, the recombinant Saccharomyces cervisiae strains, the preparation of the mitochondria and the measurement of the activity of the UCP1 protein are described in the publication of Arechaga et al. already cited in example 1. […]

UCP1 protein [4] = biological target: T2, UCP1 protein; assay: Membrane potential of yeast mitochondria expressing UCP1; assay type: biochemical; details: FIG. 6b, molar ratio retinoic acid:albumin 2:1 and 4:1
Description: There is also a qualitative method for determining the uncoupling activity of an UCP protein. It is the measurement of the mitochondrial membrane potential the reduction of which is an evidence of the decrease of the quality of the recovery of chemical energy at the level of the mitochondria. Activation of an uncoupling protein is reflected by de decrease of the membrane potential followed by an acceleration of the respiration.
FIG. 6 evidences the variation in the membrane potentials and respiration of mitochondria in yeasts (reflecting the uncoupling activity of UCP1 protein) under the effect of the retinoic acid. The upper curve reflects oxygen consumption (expressed in nanomoles of oxygen per minute per milligram of mitochondrial proteins) and the lower curve the membrane potentials. […]
This activity may be measured qualitatively or quantitatively, with the help of the parameters: • qualitatively: • The mitochondrial membrane potential; the increase of the activity of an uncoupling protein is reflected by a reduction of the membrane potential and a resulting increase in oxygen consumption. In turn, the increase corresponds to an increase in dissipation of energy. • quantitatively: • mitochondrial respiration (oxygen consumption) which is linked directly to the quantity of substrate consumed by the mitochondria. […]

[5] = system: yeast mitochondria lacking UCP proteins; assay: Membrane potential of yeast mitochondria lacking UCP proteins (control); assay type: biochemical, Saccharomyces cervisiae; details: FIG. 6a
Description: FIG. 6 evidences the variation in the membrane potentials and respiration of mitochondria in yeasts (reflecting the uncoupling activity of UCP1 protein) under the effect of the retinoic acid. The upper curve reflects oxygen consumption (expressed in nanomoles of oxygen per minute per milligram of mitochondrial proteins) and the lower curve the membrane potentials. FIG. 6a corresponds to measurements made in yeast mitochondria lacking UCP proteins and FIG. 6b corresponds to measurements made in yeast mitochondria wherein UCP1 protein is expressed. • N: designates the addition of NADH (respitation substrate) • R: designates the addition of retinoic acid (respectively at a molar ratio retinoic acid:albumin of 2:1 and 4:1) • G: designates the addition of 1 millimolar guanosine diphosphate (an inhibitor of UCP1 protein).

change of the activity of UCP2 protein when the concentration of retinoic acid increases (UCP2 protein [1]; molar ratio retinoic acid/albumin 3:1 vs 4:1, FIGS. 4a and 4b): slight increase
increase of the activity of UCP2 (respiration stimulation factor) (UCP2 protein [1]; pH 7.3, FIG. 2b): the increase is very sensitive
response of UCP1 protein (respiration stimulation factor) (UCP1 protein [3]; pH 6.8, FIG. 2a): responds
SMILES: CC1=C(/C=C/C(C)=C/C=C/C(C)=C/C(=O)O)C(C)(C)CCC1 [retinoic acid, all-trans retinoic acid]
increase of the activity of UCP2 (respiration stimulation factor) (UCP2 protein [1]; pH 6.8, FIG. 2a): no notable increase; also recorded: not the case
activation of the activity of UCP2 protein (UCP2 protein [1]): activates the dissipation of energy by UCP2
response / uncoupling activity of UCP1 protein (UCP1 protein [3]; pH not stated, FIG. 3a for palmitic acid): capable of increasing the uncoupling activity
effect on mitochondrial membrane potential (UCP1 protein [4]): induces a reduction of the membrane potential
effect on mitochondrial membrane potential [5]: not observed

activation of the activity of UCP2 protein (UCP2 protein [1]): No activation
SMILES: O=C(O)c1ccccc1O [salicylic acid]

More lines, now with the values behind:

SMILES: CC1=CC(=O)CC(C)(C)C1(O)/C=C/C(C)=C\C(=O)O (centres unmarked) [abscissic acid]
activation of the activity of UCP2 protein (UCP2 protein [1]): No activation

SMILES: CCCCC/C=C\C/C=C\C/C=C\C/C=C\CCCC(=O)O [arachidonic acid]
activation of the activity of UCP2 protein (UCP2 protein [1]): No activation

SMILES: CCCCCCCCCCCCCCCC(=O)O [palmitic acid]
activation of the activity of UCP2 protein (UCP2 protein [1]): does not have any effect; also recorded: not the case
change of UCP2 activity with the pH and the increase of the concentration of palmitic acid (UCP2 protein [2]): slight increase

SMILES: CC1=C(/C=C/C(C)=C/C=C/C(C)=C/CO)C(C)(C)CCC1 [retinol]
activation of the activity of UCP2 protein (UCP2 protein [1]): No activation
